Test results published in paper PMC5766608, “Target engagement imaging of PARP inhibitors in small-cell lung cancer” (Nature Communications, 2018).
Where two headings read alike, the source gives them in different places.

Tests used:
PARP1 = molecular target: T1, PARP1 (Homo sapiens, UniProt P09874); settings: cited from earlier work
T1 construct: purchased BPS Bioscience, San Diego, CA

PARP1/2 [1] = experiment: In vitro binding kinetics by recovery of PARPi-FL binding (flow cytometry); format: cell-based, human
Method: (§1) Cells were then treated with fluorescent imaging agent PARPi-FL and either imaged via confocal microscopy or measured via flow cytometry. […] Then, cells were trypsinized, subjected to flow cytometry and analyzed for the relative PARPi-FL fluorescence signal. […] Error bars represent the SD of three independent experiments with three parallels each
(§2) After the respective treatment/staining, which is described below for the different experiments, cells were washed in PBS, trypsinized, washed with flow buffer (1% BSA (w/v) in PBS), transferred to 5 mL flow cytometry tubes through the 40 µm cell strainer cap and left on ice until measurement in the flow cytometer (Fortessa II). Raw data were processed in FlowJo software in order to calculate PARPi-FL uptake per cell. Dead cells were excluded by eliminating DAPI positive cells from the analysis (Supplementary Fig. 8). Cell clumps and debris were eliminated using the corresponding gates (forward and side scatter) for the unstained cell population. PARPi-FL fluorescence was imaged in the FITC channel against side scatter (area).
We furthermore determined the duration of PARPi binding to their target site. […] Then, cells were subjected to flow cytometry as described above. […] We determined the duration of binding of the PARPi indirectly by calculating the recovery of PARP-FL binding with increasing times between PARPi and PARPi-FL treatment. Decay curves were calculated with Prism using two phase decay least squares regression.

JHU-LX22 cells = experiment: Cytotoxicity, Alamar Blue assay; format: cell-based, human; settings: 24-96 h
Method: […]. Cells were plated in 96-well plates (black, clear-bottom, Corning Incorporated) at a density of 5,000 cells/well and allowed them to attach for 24 h. All compounds were prepared as 10 mM stock solutions in DMSO and further diluted in media. Cells were treated with 0, 2, 5, and 10 µM (final solutions containing 1% DMSO) of each compound for 24, 48, 72 and 96 h. Then, media was removed and Alamar Blue reagent was added to each well. Plates were incubated at 37 °C for 4 h under protection from direct light. Fluorescence was read (bottom-read mode) using an excitation wavelength of 570 nm and an emission wavelength of 585 nm on a SpectraMax M5 microplate reader (Molecular Devices, Sunnyvale, CA, USA). The average reading values were analyzed by subtracting the background readings (wells with Alamar Blue but without cells) and compared against the untreated controls of each plate (defined as 100% viability) to determine the percentage of living cells. The experiment was carried out in three biological replicates with four parallels of each compound.
Supplementary Figure 9 | In vitro toxicity of the tested PARP inhibitors and imaging tracers on JHU-LX22 cells. (a) Assessment of viable cell population during flow cytometry after a 2 hour incubation time of several PARP inhibitors at concentrations between 0 and 5 µM. (b) Cell viability determination using Alamar Blue assays. Cells were incubated with 0, 0.2, 2, 5 or 10 µM of each compound for 24, 48, 72 or 96 h and cell viability was assessed using the Alamar Blue assay. (c) IC values derived from Alamar Blue assays at 72 h and 96 h.
Viability data represent means from three independent experiments, each with four parallels of each sample. Error bars represent the standard error (SEM). […]

PARP1/2 [2] = experiment: Blocking of PARPi-FL uptake by PARP inhibitors (confocal microscopy, flow cytometry); format: cell-based, human; settings: JHU-LX22 cells; for Blocking of PARPi-FL uptake: pretreatment with PARP inhibitor 25 min, then PARPi-FL 15 min; for Blocking of PARPi-FL uptake / target engagement, in words: pretreatment with inhibitor, then PARPi-FL
Method: as §1
We conducted confocal laser scanning microscopy to visualize the extent of intracellular blocking of PARPi-FL uptake by different PARPi. […] PARPi-FL was removed and cells were washed in fresh medium for 10 min. Next, cells were treated with 4% Paraformaldehyde (PFA) for 8 min on ice to ensure fixation. […] PARPi-FL intensity was determined by measuring the PARPi-FL fluorescence intensity in all nuclei, which were thresholded using Hoechst staining.
as §2
Controls (cells incubated with medium instead of a PARP inhibitor) served as reference value and their PARPi-FL signal was defined as 100%.
To quantify the extent of blocking of PARPi-FL uptake by different PARPi, we quantified the intracellular PARPi-FL uptake in JHU-LX22 cells after incubation with PARP inhibitors.

PARP1/2 [3] = settings: olaparib 50 mg/kg, talazoparib 0.3 mg/kg i.v., 60 min between drug and tracer
Method: (§3) All PET/CT images (n = 90) were acquired on an Inveon PET/CT (Siemens) and reconstructed scans were analyzed using the Inveon Research Workplace Software (Siemens). To acquire PET/CT images, animals were anesthetized with 2% isoflurane and positioned on the scanner bed. […] PET data were collected for 5–10 min, followed by CT.
Activity concentration was quantified by averaging the mean values taken from VOIs drawn over the entire tumor as it appeared in the CT and portrayed as a mean %ID/g ± SD.

PARylation in LX22 cells = experiment: PARylation inhibition assay (western blot for PAR); format: cell-based, human; settings: 0.1 µM, 30 min incubation
Method: Whole cell lysates were prepared by incubating cells with RIPA Buffer with Triton X (BP-140, Boston BioProducts) containing Protease Inhibitor (Complete EASYpacks, Sigma-Aldrich) for 30 min on ice, followed by 30 min centrifugation at 10,000 × g for 30 min at 4 °C. Protein concentration of lysates was determined using a Bicinchoninic acid (BCA) assay kit (#23225, Pierce) and following the manufacturers instructions. SDS gel electrophoresis and immunoblotting were carried out following standard procedures. Signal detection was carried out using chemiluminescent substrate (#34077, Thermo Scientific). Densitometric analysis of western blots was carried out using ImageJ (NIH). To detect PAR, we used a rabbit polyclonal anti-PAR polymer antibody (1:1000 dilution, #4336-BPC-100, Trevigen) followed by a goat anti-rabbit IgG-HRP secondary antibody (1:10,000 dilution, sc-2004, SantaCruz). B-actin was used as loading control (1:1000 dilution, A3854, Sigma-Aldrich) and was stained after stripping the blot for 30 min at room temperature using stripping buffer (Amresco).
Supplementary Figure 3 | PARylation inhibition assay.
PARPi-FL and [18F]PARPi quantify PARP inhibition, we compared their ability to inhibit PARylation
in comparison with olaparib.
inhibition. At 1 µM, the PAR signal for all three compounds is nearly completely eliminated.

PARP1/2 [4] = experiment: Ex vivo autoradiography of target engagement; settings: olaparib 50 mg/kg, talazoparib 0.3 mg/kg, 30 min prior to tracer; tumor collected 2 h post tracer
Text: Sections from 3 different tumor areas from each tumor (n = 3/group) were exposed to an autoradiography plate overnight and read the next day. ImageJ was used to quantify the signal intensity of each tissue. Adjacent sections were used for PARP1 IHC and H&E staining to confirm tissue identity and PARP1 expression.

PARP1/2 [5] = settings: for Blocking of [18F]PARPi tumor uptake (target engagement): 30 min before tracer, PET 2 h later
Text: Fig. 7 Variable dose blocking.
The control group received no therapeutic inhibitor.

JHU-LX48 SCLC PDX [6] = experiment: PET/CT tumor size study
Method: PET/CT imaging was performed once a week over 8 consecutive weeks starting one week after xenografting. a Representative MIPs from the same mouse over 8 weeks. b Quantification (n = 6) of mean uptake (top) and max uptake (bottom) of the PET images grouped by tumor size.
as §3
This was continued for 8 consecutive weeks until mice were sacrificed to avoid surpassing a tumor size limit of 1500 mm^3. Activity concentration was quantified by averaging the mean or max values taken from VOIs drawn over the entire tumor as it appeared in the CT and portrayed as mean and max %ID/g ± SD.

JHU-LX48 SCLC PDX [7] = experiment: PET/CT imaging agent kinetics; format: in vivo, NSG mice; settings: i.v., JHU-LX48 PDX mice
Text: Error bars represent the SD
Different mice were used for each group to eliminate, as much as possible, the influence of anesthesia on tracer distribution.

PARP2 = molecular target: T2, PARP2 (Homo sapiens, UniProt Q9UGN5); experiment: PARP2 IC50 assay (BPS Bioscience, Strep-HRP, histone substrate); format: biochemical; settings: footnote a: see Supplementary Fig. 2
T2 construct: purchased BPS Bioscience, San Diego, CA
Method: Assays were performed by BPS Bioscience, San Diego, CA. […] Data was reported by BPS a`s % enzyme activity curve from 0.03 nM or 0.1 nM to 1000 nM.

[8] = JHU-LX22 cells, 0.2 µM inhibitor 25 min, washed, 0-48 h post-incubation, two phase decay fit

T2 sequence (Q9UGN5 whole entry): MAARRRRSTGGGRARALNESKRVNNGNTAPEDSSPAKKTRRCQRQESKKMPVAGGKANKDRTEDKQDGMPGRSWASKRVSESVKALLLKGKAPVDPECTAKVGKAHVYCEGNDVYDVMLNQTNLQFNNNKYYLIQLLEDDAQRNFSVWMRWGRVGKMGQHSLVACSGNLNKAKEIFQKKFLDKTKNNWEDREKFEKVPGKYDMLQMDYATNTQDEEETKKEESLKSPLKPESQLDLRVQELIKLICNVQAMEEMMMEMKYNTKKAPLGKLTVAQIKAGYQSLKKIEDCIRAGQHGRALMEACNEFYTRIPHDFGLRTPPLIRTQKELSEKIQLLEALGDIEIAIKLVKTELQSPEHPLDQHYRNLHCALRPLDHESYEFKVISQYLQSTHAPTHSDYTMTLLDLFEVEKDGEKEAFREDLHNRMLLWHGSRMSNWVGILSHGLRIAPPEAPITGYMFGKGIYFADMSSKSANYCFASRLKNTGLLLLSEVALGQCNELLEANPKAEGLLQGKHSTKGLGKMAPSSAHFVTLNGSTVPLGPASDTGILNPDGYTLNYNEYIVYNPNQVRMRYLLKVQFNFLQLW
T1 sequence (P09874 whole entry): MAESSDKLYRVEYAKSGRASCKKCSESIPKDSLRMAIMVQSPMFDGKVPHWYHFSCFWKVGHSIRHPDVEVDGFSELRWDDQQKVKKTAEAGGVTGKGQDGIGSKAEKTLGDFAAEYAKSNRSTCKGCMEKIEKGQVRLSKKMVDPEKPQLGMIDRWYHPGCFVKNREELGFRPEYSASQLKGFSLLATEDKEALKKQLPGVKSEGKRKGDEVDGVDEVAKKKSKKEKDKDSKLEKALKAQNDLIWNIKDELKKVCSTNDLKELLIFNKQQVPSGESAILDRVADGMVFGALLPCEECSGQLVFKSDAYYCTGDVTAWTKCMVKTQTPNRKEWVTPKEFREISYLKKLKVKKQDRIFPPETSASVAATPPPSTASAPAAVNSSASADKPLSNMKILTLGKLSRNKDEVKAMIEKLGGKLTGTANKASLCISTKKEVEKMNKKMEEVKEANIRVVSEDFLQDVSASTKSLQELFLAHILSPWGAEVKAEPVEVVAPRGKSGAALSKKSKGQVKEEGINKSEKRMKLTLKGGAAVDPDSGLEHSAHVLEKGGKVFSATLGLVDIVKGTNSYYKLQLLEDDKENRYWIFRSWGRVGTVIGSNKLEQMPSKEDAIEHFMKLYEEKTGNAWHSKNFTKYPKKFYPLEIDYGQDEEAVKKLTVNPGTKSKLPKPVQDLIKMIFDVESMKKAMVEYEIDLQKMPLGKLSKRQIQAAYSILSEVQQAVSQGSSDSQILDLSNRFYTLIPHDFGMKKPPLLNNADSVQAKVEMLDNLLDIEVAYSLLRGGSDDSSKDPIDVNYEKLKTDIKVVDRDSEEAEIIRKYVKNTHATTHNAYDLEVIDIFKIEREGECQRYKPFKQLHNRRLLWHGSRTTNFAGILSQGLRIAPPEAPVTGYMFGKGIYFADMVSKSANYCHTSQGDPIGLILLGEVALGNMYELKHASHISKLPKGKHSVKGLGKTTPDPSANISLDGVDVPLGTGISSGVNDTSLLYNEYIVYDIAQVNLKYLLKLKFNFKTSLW

CN(C)Cc1ccc(-c2nc3cccc4c3n2CCNC4=O)cc1 [AG14361]
Ki (PARP1): < 5 nM

NC(=O)c1cccc2cn(-c3ccc([C@@H]4CCCNC4)cc3)nc12 [Niraparib, niraparib]
Retention on PARP1/2 binding sites, in words (PARP1/2 [1]; [8]): faster release kinetics | Effect on JHU-LX22 cell viability, in words (JHU-LX22 cells): much less cell killing | Blocking of PARPi-FL uptake (PARP1/2 [2]): more than 50%

O=C(c1cc(Cc2n[nH]c(=O)c3ccccc23)ccc1F)N1CCN(C(=O)C2CC2)CC1 [Olaparib, olaparib]
Initial blocking (t = 1 h) (PARP1/2 [3]): 74% | Initial blocking (t = 1 h) (PARP1/2 [3]; listed as olaparib): 74% | Inhibition of PARylation (PAR signal) (PARylation in LX22 cells): nearly complete inhibition | [18F]PARPi tumor uptake blocked (autoradiography) (PARP1/2 [4]): 96% | Blocking of PARPi-FL uptake / target engagement, in words (PARP1/2 [2]): most complete target engagement | Blocking of [18F]PARPi tumor uptake (target engagement) (PARP1/2 [5]; 5 mg/kg i.v.): 59% | Blocking of [18F]PARPi tumor uptake (target engagement) (PARP1/2 [5]; 15 mg/kg i.v.): 75% | Blocking of [18F]PARPi tumor uptake (target engagement) (PARP1/2 [5]; 50 mg/kg i.v.): 78% | 50% blocking dose (PARP1/2 [5]; single-phase decay curve fit, JHU-LX48 PDX tumor): 3.17 mg/kg

CNCc1ccc(-c2[nH]c3cc(F)cc4c3c2CCNC4=O)cc1 [Rucaparib, rucaparib]
Retention on PARP1/2 binding sites, in words (PARP1/2 [1]; [8]): longest retention | Blocking of PARPi-FL uptake / target engagement, in words (PARP1/2 [2]): most complete target engagement

C[C@]1(c2nc3c(C(N)=O)cccc3[nH]2)CCCN1 [Veliparib, veliparib]
Retention on PARP1/2 binding sites, in words (PARP1/2 [1]): faster release kinetics | Effect on JHU-LX22 cell viability, in words (JHU-LX22 cells): much less cell killing | Blocking of PARPi-FL uptake (PARP1/2 [2]): more than 50%

O=C(c1ccc([18F])cc1)N1CCN(C(=O)c2cc(Cc3n[nH]c(=O)c4ccccc34)ccc2F)CC1 [[^18F]PARPi]
Maximum tumor uptake (JHU-LX48 SCLC PDX [6]; tumor sizes 50-100 mm^3): 2.62 ± 0.27 %ID/g | Maximum tumor uptake (JHU-LX48 SCLC PDX [6]; tumor sizes 50-1300 mm^3): 2.85 ± 0.49 %ID/g | Mean tumor uptake, highest single value (JHU-LX48 SCLC PDX [6]; tumor sizes 50-1300 mm^3): 1.24 %ID/g | Mean tumor uptake, lowest single value (JHU-LX48 SCLC PDX [6]; tumor sizes 50-1300 mm^3): 0.47 %ID/g | Mean tumor uptake (JHU-LX48 SCLC PDX [6]; tumor sizes 50-1300 mm^3, 2 h post injection): 0.86 ± 0.22 %ID/g | Maximum tumor uptake (JHU-LX48 SCLC PDX [6]; tumor sizes 800-1300 mm^3): 3.06 ± 0.61 %ID/g | Mean tumor uptake (JHU-LX48 SCLC PDX [6]; tumor sizes between 100 and 200 mm^3): 0.97 ± 0.18 %ID/g | Mean tumor uptake (JHU-LX48 SCLC PDX [6]; tumor sizes between 400 and 800 mm^3): 0.71 ± 0.22 %ID/g | Muscle uptake (PET) (JHU-LX48 SCLC PDX [7]; 30 min post injection): 0.90 ± 0.06 %ID/g | Tumor uptake (PET) (JHU-LX48 SCLC PDX [7]; 30 min post injection): 1.34 ± 0.28 %ID/g | Muscle uptake (PET) (JHU-LX48 SCLC PDX [7]; 60 min post injection): 0.44 ± 0.03 %ID/g | Tumor uptake (PET) (JHU-LX48 SCLC PDX [7]; 60 min post injection): 0.94 ± 0.04 %ID/g | Muscle uptake (PET) (JHU-LX48 SCLC PDX [7]; 120 min post injection): 0.12 ± 0.02 %ID/g | Tumor uptake (PET) (JHU-LX48 SCLC PDX [7]; 120 min post injection): 0.87 ± 0.21 %ID/g | IC50 (PARP2): 0.21 nM

NC(=O)c1ccc(I)c([N+](=O)[O-])c1 [iniparib]
Blocking of PARPi-FL uptake / target engagement, in words (PARP1/2 [2]): failed to reduce PARPi-FL uptake
